Data published in PMC7206119, “RIP1 inhibition blocks inflammatory diseases but not tumor growth or metastases” (Cell Death and Differentiation, 2019).

Columns and labels:
Assay in all cases: biochemical
Parameters in all cases: Thermo Fisher SelectScreen kinase panel: Z'-LYTE and Adapta activity, LanthaScreen binding
LIMK1 = LIMK1 (Homo sapiens, UniProt P53667)
Summary of the method: (§1)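 GNE684 profiled at 10 µM across 221 kinases with Z'-LYTE and Adapta activity and LanthaScreen binding formats. Also screened at 10 µM against 468 kinases in KINOMEscan scanMAX binding assay.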

PKC_zeta = target: T1, PKC_zeta (Homo sapiens, UniProt Q05513)
T1 construct: gene PRKCZ
Summary of the method: as §1

SGK1 = SGK1 (Homo sapiens, UniProt O00141)
SGK1, sequence (O00141 whole entry): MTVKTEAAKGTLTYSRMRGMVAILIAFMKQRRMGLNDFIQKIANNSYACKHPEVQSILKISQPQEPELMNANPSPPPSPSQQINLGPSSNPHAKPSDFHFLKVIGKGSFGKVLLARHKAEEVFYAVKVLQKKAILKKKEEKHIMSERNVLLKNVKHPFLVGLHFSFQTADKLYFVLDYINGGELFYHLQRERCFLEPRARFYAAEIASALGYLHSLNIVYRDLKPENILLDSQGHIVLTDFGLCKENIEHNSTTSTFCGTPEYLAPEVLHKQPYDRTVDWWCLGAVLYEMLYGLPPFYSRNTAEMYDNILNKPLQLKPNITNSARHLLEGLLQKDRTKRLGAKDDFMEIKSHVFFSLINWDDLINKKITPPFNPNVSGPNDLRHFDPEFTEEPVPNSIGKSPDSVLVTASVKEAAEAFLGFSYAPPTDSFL
Summary of the method: as §1

TNK2 = TNK2 (Homo sapiens, UniProt Q07912)
Summary of the method: as §1

CamKII_alpha = target: T2, CamKII_alpha (Homo sapiens, UniProt Q9UQM7)
T2 construct: gene CAMK2A
T2 sequence (Q9UQM7 whole entry): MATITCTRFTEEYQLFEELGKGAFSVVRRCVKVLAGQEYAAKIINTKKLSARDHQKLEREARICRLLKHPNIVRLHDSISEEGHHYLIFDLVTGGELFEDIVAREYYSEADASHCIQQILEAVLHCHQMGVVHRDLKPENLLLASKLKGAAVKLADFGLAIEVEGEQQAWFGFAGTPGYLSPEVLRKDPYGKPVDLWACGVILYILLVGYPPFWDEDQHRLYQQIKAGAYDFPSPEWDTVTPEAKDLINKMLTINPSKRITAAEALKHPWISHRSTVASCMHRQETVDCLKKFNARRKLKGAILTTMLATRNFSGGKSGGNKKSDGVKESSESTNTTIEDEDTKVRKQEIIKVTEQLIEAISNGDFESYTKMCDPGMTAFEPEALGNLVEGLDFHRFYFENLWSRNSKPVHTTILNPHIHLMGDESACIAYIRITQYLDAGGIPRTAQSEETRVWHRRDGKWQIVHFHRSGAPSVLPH
Summary of the method: as §1

DYRK4 = DYRK4 (Homo sapiens, UniProt Q9NR20)
Summary of the method: as §1

FES = FES (Homo sapiens, UniProt P07332)
Summary of the method: as §1

CK1_gamma1 = target: T3, CK1_gamma1 (Homo sapiens, UniProt Q9HCP0)
T3 construct: gene CSNK1G1
Summary of the method: as §1

PhK_gamma1 = target: T4, PhK_gamma1 (Homo sapiens, UniProt Q16816)
T4 construct: gene PHKG1
Summary of the method: as §1

Tpl2 = target: T5, Tpl2 (Homo sapiens, UniProt P41279)
T5 construct: gene MAP3K8
T5 sequence (P41279 whole entry): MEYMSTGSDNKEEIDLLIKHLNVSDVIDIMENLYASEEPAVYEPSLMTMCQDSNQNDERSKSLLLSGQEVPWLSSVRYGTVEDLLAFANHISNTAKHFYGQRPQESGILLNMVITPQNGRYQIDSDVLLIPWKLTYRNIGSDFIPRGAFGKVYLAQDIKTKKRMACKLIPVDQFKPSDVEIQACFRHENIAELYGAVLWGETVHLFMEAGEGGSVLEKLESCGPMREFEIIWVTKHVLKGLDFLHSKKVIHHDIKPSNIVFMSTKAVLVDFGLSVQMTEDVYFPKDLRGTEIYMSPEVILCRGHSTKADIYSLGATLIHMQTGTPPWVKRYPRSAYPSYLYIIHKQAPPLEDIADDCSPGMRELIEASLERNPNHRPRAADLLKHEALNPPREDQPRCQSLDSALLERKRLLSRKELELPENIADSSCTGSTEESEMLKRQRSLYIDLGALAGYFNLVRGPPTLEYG
Summary of the method: as §1

MEKK2 = target: T6, MEKK2 (Homo sapiens, UniProt Q9Y2U5)
T6 construct: gene MAP3K2
Summary of the method: as §1

CHK1 = target: T7, CHK1 (Homo sapiens, UniProt O14757)
T7 construct: gene CHEK1
Summary of the method: as §1

DYRK3 = DYRK3 (Homo sapiens, UniProt O43781)
Summary of the method: as §1

IRAK1 = IRAK1 (Homo sapiens, UniProt P51617)
Summary of the method: as §1

DNA-PK = target: T8, DNA-PK (Homo sapiens, UniProt P78527)
T8 construct: gene PRKDC
Summary of the method: as §1

TXK = TXK (Homo sapiens, UniProt P42681)
TXK, sequence (P42681 whole entry): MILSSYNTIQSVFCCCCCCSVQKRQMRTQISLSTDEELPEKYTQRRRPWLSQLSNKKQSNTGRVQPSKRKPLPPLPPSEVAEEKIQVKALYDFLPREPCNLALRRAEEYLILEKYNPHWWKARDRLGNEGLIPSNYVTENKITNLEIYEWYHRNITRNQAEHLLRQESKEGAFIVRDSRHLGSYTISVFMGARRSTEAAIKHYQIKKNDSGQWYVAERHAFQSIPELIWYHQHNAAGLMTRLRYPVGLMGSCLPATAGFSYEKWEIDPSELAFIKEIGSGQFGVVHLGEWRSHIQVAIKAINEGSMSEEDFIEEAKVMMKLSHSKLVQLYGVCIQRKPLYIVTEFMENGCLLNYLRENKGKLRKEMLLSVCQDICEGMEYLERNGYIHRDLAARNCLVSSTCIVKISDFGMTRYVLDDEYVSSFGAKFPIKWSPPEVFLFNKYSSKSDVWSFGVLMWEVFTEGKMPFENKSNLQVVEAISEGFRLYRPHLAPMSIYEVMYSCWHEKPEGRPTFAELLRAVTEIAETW
Summary of the method: as §1

CLK4 = CLK4 (Homo sapiens, UniProt Q9HAZ1)
Summary of the method: as §1

ZIPK = target: T9, ZIPK (Homo sapiens, UniProt O43293)
T9 construct: gene DAPK3
T9 sequence (O43293 whole entry): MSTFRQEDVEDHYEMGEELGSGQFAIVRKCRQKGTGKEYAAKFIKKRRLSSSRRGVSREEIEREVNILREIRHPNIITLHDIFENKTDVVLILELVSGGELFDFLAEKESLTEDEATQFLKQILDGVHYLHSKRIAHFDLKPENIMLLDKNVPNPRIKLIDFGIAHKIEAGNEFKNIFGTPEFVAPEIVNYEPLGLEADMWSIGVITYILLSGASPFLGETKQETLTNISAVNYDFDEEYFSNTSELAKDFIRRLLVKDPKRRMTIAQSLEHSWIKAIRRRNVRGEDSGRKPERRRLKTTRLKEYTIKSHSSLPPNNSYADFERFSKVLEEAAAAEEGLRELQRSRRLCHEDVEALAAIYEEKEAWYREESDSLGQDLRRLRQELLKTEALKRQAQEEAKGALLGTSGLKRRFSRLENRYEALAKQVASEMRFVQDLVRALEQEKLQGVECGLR
Summary of the method: as §1

DAPK1 = DAPK1 (Homo sapiens, UniProt P53355)
DAPK1, sequence (P53355 whole entry): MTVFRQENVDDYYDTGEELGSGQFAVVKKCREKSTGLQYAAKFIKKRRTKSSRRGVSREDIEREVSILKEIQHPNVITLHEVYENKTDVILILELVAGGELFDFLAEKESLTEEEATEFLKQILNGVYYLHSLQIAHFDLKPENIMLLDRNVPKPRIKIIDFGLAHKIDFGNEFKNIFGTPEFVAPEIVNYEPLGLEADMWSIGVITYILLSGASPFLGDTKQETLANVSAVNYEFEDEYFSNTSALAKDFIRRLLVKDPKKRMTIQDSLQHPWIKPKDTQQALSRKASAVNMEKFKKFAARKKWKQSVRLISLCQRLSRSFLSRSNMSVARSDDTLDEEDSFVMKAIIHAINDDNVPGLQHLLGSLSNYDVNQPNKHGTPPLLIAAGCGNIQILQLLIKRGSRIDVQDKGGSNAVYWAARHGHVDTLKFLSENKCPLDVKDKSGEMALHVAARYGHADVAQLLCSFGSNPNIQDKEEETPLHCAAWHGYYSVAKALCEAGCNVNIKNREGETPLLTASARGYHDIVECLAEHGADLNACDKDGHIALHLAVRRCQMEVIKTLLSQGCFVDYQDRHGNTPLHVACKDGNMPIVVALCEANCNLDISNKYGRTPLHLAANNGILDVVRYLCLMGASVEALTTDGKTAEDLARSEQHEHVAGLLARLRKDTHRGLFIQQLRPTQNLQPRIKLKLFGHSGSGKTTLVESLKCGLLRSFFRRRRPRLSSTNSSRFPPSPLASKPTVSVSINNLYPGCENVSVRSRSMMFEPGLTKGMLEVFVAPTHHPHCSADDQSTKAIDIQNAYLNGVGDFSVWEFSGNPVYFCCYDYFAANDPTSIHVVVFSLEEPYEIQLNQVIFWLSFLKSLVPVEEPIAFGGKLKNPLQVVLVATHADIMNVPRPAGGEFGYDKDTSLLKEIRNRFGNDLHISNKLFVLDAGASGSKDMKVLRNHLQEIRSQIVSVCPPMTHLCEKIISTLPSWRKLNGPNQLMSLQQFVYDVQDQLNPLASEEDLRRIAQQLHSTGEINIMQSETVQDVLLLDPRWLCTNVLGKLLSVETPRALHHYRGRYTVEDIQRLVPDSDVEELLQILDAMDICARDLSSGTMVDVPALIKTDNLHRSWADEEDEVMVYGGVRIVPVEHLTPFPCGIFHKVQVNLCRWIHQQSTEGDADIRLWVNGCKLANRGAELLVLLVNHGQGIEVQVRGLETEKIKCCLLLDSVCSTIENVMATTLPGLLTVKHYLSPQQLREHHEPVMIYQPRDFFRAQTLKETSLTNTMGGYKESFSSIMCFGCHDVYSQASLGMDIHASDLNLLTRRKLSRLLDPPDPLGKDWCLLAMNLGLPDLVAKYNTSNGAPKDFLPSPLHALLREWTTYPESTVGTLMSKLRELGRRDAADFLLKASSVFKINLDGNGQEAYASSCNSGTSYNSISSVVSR
Summary of the method: as §1

DMPK = DMPK (Homo sapiens, UniProt Q09013)
Summary of the method: as §1

CK1_epsilon1 = target: T10, CK1_epsilon1 (Homo sapiens, UniProt P49674)
T10 construct: gene CSNK1E
Summary of the method: as §1

MAPKAPK3 = MAPKAPK3 (Homo sapiens, UniProt Q16644)
MAPKAPK3, sequence (Q16644 whole entry): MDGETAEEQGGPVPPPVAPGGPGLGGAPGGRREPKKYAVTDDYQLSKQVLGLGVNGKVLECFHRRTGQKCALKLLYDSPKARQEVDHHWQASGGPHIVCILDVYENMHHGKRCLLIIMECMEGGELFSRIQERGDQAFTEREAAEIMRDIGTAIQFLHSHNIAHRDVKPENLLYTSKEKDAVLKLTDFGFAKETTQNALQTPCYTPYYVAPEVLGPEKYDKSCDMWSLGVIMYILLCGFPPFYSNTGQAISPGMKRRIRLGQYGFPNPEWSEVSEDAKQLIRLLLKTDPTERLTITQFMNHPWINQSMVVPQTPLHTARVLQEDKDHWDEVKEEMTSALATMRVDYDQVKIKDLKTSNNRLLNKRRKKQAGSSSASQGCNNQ
Summary of the method: as §1

CHK2 = target: T11, CHK2 (Homo sapiens, UniProt O96017)
T11 construct: gene CHEK2
T11 sequence (O96017 whole entry): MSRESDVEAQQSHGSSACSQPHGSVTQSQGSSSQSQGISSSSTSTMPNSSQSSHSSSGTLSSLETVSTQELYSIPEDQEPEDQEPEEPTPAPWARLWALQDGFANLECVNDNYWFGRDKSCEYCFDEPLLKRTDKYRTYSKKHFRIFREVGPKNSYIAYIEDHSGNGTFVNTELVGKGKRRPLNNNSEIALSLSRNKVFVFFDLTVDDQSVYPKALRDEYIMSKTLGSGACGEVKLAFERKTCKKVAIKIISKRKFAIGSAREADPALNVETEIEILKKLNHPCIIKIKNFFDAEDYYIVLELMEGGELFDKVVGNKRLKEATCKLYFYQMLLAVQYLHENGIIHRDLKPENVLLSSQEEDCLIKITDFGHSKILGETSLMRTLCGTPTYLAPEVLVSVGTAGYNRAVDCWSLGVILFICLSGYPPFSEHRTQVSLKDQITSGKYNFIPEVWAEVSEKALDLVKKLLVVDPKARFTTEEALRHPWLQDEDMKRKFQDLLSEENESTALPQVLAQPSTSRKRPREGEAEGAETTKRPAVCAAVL
Summary of the method: as §1

COc1cc2c(cn1)N(C)C(=O)[C@@H](NC(=O)c1nc3n(n1)[C@H](c1ccccc1)CC3)CC2 [GNE684, (S)-N-((S)-7-methoxy-1-methyl-2-oxo-2,3,4,5-tetrahydro-1H-pyrido[3,4-b]azepin-3-yl)-5-phenyl-6,7-dihydro-5H-pyrrolo[1,2-b][1,2,4]triazole-2-carboxamide]
inhibition at 10 µM (LIMK1): 8.5% | inhibition at 10 µM (PKC_zeta): -2.5% | inhibition at 10 µM (SGK1): -1% | inhibition at 10 µM (TNK2): 2.5% | inhibition at 10 µM (CamKII_alpha): 6.5% | inhibition at 10 µM (DYRK4): 2% | inhibition at 10 µM (FES): 3% | inhibition at 10 µM (CK1_gamma1): 4% | inhibition at 10 µM (PhK_gamma1): 0% | inhibition at 10 µM (Tpl2): 7% | inhibition at 10 µM (MEKK2): 7% | inhibition at 10 µM (CHK1): -7% | inhibition at 10 µM (DYRK3): 2% | inhibition at 10 µM (IRAK1): -10.5% | inhibition at 10 µM (DNA-PK): 4% | inhibition at 10 µM (TXK): 5.5% | inhibition at 10 µM (CLK4): 2.5% | inhibition at 10 µM (ZIPK): 1% | inhibition at 10 µM (DAPK1): -11.5% | inhibition at 10 µM (DMPK): -3% | inhibition at 10 µM (CK1_epsilon1): 5% | inhibition at 10 µM (MAPKAPK3): 3% | inhibition at 10 µM (CHK2): 5%
